# Literature values in patent publication US11590237B2, “Pharmaceutical formulation comprising incretin-insulin conjugates” (Merck Sharp & Dohme Corp., priority 2017, dated 2023).
# Conditions: literature data [21]
structure (smiles),measurement,value
CCCCCCCCCCCCCCCC(=O)N[C@@H](CCC(=O)NCCCC[C@H](NC(=O)[C@H](C)NC(=O)[C@H](C)NC(=O)[C@H](CCC(N)=O)NC(=O)CNC(=O)[C@H](CCC(=O)O)NC(=O)[C@H](CC(C)C)NC(=O)[C@H](Cc1ccc(O)cc1)NC(=O)[C@H](CO)NC(=O)[C@H](CO)NC(=O)[C@@H](NC(=O)[C@H](CC(=O)O)NC(=O)[C@H](CO)NC(=O)[C@@H](NC(=O)[C@H](Cc1ccccc1)NC(=O)[C@@H](NC(=O)CNC(=O)[C@H](CCC(=O)O)NC(=O)[C@H](C)NC(=O)[C@@H](N)Cc1cnc[nH]1)[C@@H](C)O)[C@@H](C)O)C(C)C)C(=O)N[C@@H](CCC(=O)O)C(=O)N[C@@H](Cc1ccccc1)C(=O)N[C@H](C(=O)N[C@@H](C)C(=O)N[C@@H](Cc1c[nH]c2ccccc12)C(=O)N[C@@H](CC(C)C)C(=O)N[C@H](C(=O)N[C@@H](CCCNC(=N)N)C(=O)NCC(=O)N[C@@H](CCCNC(=N)N)C(=O)NCC(=O)O)C(C)C)[C@@H](C)CC)C(=O)O [liraglutide],Number of monomers in oligomers,6-12 monomers
